Measured values reported in patent US20240192196A1, “NOVEL C[…]-CoV-2 SAFE REPLICON SYSTEM AND USE THEREOF” (SUN YAT-SEN UNIVERSITY, priority 2020, published 2024).

System: novel coronavirus SARS-COV-2 safe replicon system
Test: microbe, parasite or virus in culture
Assay type: cell-based
Details: Severe acute respiratory syndrome coronavirus 2, HEK-293T, read-out: IC50 (semi-inhibitory concentration), inhibition of cellular luciferase activity

SMILES | IC50
Cc1cccc(C)c1OCC(=O)N[C@@H](Cc1ccccc1)[C@@H](O)C[C@H](Cc1ccccc1)NC(=O)[C@H](C(C)C)N1CCCNC1=O [Lopinavir] | 6.79 ± 1.09 µM
CCC(CC)COC(=O)[C@H](C)N[P@](=O)(OC[C@H]1O[C@@](C#N)(c2ccc3c(N)ncnn23)[C@H](O)[C@@H]1O)Oc1ccccc1 [Remdesivir] | 12.4 ± 1.08 µM
